Results as given in patent publication US11173151B2, “Substituted triazole derivatives and uses thereof” (BAYER AKTIENGESELLSCHAFT, priority 2017, dated 2021).

Key:
[1] = target: T1, human V2 receptor (Homo sapiens, UniProt P30518); test: Cellular in vitro assay for determining vasopressin receptor activity, V2 receptor cell line (CHO, CRE-luciferase); format: cell-based; conditions: CHO cell line transfected with human V2 receptor; [Arg8]-vasopressin at EC50 concentration, 3 hours; read-out: IC50 hV2
T1 construct: expressed in transfected cells; host or cells: CHO K1 (ATCC) expressing firefly luciferase under a CRE-responsive promoter
T1 sequence (P30518 whole entry): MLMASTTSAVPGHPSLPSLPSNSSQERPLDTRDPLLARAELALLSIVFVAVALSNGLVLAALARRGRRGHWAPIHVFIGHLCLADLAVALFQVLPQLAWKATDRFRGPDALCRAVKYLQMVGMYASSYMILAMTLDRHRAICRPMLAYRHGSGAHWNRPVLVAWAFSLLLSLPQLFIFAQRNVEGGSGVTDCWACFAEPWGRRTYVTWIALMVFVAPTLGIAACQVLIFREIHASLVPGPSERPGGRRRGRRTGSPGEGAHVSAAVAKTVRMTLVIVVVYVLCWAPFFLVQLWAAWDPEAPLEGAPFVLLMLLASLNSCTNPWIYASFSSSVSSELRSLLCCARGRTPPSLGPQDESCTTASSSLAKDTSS

[2] = target: T2, human V1a receptor (Homo sapiens, UniProt P37288); test: Cellular in vitro assay for determining vasopressin receptor activity, V1a receptor cell line (CHO, aequorin luminescence); format: cell-based; conditions: for IC50: CHO cell line transfected with human V1a receptor, [Arg]-vasopressin at EC50 concentration, read-out: IC50 hV1a; for ratio IC50 hV2/hV1a: selectivity ratio IC50 hV2 / IC50 hV1a
T2 construct: expressed in transfected cells; host or cells: CHO K1 (ATCC), also stably transfected with a modified aequorin
T2 sequence (P37288 whole entry): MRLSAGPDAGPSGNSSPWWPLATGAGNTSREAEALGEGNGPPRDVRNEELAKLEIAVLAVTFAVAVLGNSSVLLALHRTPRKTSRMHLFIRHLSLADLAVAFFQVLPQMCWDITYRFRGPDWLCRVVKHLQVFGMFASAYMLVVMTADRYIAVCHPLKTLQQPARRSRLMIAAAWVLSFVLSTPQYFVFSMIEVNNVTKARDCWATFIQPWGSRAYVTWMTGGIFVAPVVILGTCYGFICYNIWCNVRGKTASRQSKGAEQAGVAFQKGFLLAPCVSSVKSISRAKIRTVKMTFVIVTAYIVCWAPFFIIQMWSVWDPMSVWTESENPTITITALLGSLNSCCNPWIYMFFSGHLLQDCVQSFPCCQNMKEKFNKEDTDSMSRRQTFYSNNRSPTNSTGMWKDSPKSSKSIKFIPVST
Summary of the method: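 CHO K1/aequorin cells, coelenterazine 5 μg/ml o/n; cpd 10 min; [Arg]-vasopressin at EC50; luminescence read immediately; IC50.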

SMILES | IC50 [1] [µM] | IC50 [2] [µM] | ratio IC50 hV2/hV1a [2]
CCN1CCN(C(=O)c2ccccc2-n2cnc(Cn3nc(-c4ccc(Cl)cc4)n(C[C@H](O)C(F)(F)F)c3=O)n2)CC1 [Example 358, 5-(4-Chlorophenyl)-2-[(1-{2-[(4-ethylpiperazin-1-yl)carbonyl]phenyl}-1H-1,2,4-triazol-3-yl)methyl]-4-[(2S)-3,3,3-trifluoro-2-hydroxypropyl]-2,4-dihydro-3H-1,2,4-triazol-3-one] | 2.75 | 0.018 | 152.8
O=C(c1ccccc1-n1cnc(Cn2nc(-c3ccc(Cl)cc3)n(C[C@H](O)C(F)(F)F)c2=O)n1)N1CCCCCCC1 [Example 359, 2-({1-[2-(Azocan-1-ylcarbonyl)phenyl]-1H-1,2,4-triazol-3-yl}methyl)-5-(4-chlorophenyl)-4-[(2S)-3,3,3-trifluoro-2-hydroxypropyl]-2,4-dihydro-3H-1,2,4-triazol-3-one] | 0.9 | 0.0065 | 138.5
O=C(Nc1ccccc1)c1ccccc1-n1cnc(Cn2nc(-c3ccc(Cl)cc3)n(C[C@H](O)C(F)(F)F)c2=O)n1 [Example 360, 2-[3-({3-(4-Chlorophenyl)-5-oxo-4-[(2S)-3,3,3-trifluoro-2-hydroxypropyl]-4,5-dihydro-1H-1,2,4-triazol-1-yl}methyl)-1H-1,2,4-triazol-1-yl]-N-phenylbenzamide] | 0.0149 | 0.00074 | 20.1
Cc1cccc(NC(=O)c2ccccc2-n2cnc(Cn3nc(-c4ccc(Cl)cc4)n(C[C@H](O)C(F)(F)F)c3=O)n2)c1 [Example 361, 2-[3-({3-(4-Chlorophenyl)-5-oxo-4-[(2S)-3,3,3-trifluoro-2-hydroxypropyl]-4,5-dihydro-1H-1,2,4-triazol-1-yl}methyl)-1H-1,2,4-triazol-1-yl]-N-(3-methylphenyl)benzamide] | 0.0975 | 0.00255 | 38.2
CN(CCC#N)C(=O)c1ccccc1-n1cnc(Cn2nc(-c3ccc(Cl)cc3)n(C[C@H](O)C(F)(F)F)c2=O)n1 [Example 362, 2-[3-({3-(4-Chlorophenyl)-5-oxo-4-[(2S)-3,3,3-trifluoro-2-hydroxypropyl]-4,5-dihydro-1H-1,2,4-triazol-1-yl}methyl)-1H-1,2,4-triazol-1-yl]-N-(2-cyanoethyl)-N-methylbenzamide] | 2.5 | 0.00485 | 515.5
O=C(NCc1ccccc1F)c1ccccc1-n1cnc(Cn2nc(-c3ccc(Cl)cc3)n(C[C@H](O)C(F)(F)F)c2=O)n1 [Example 363, 2-[3-({3-(4-Chlorophenyl)-5-oxo-4-[(2S)-3,3,3-trifluoro-2-hydroxypropyl]-4,5-dihydro-1H-1,2,4-triazol-1-yl}methyl)-1H-1,2,4-triazol-1-yl]-N-(2-fluorobenzyl)benzamide] | 0.345 | 0.0055 | 62.7
O=C(NCC(F)(F)F)c1cccc(Cl)c1-n1cnc(Cn2nc(-c3ccc(Cl)cc3)n(C[C@H](O)C(F)(F)F)c2=O)n1 [Example 365, 3-Chloro-2-[3-({3-(4-chlorophenyl)-5-oxo-4-[(2S)-3,3,3-trifluoro-2-hydroxypropyl]-4,5-dihydro-1H-1,2,4-triazol-1-yl}methyl)-1H-1,2,4-triazol-1-yl]-N-(2,2,2-trifluoroethyl)benzamide] | 0.92 | 0.03 | 30.7
O=C(NCC(F)(F)F)c1cccc(Cl)c1-n1cnc(Cn2nc(-c3ccc(Cl)cc3)n(C[C@@H](O)C(F)(F)F)c2=O)n1 [Example 366, 3-Chloro-2-[3-({3-(4-chlorophenyl)-5-oxo-4-[(2R)-3,3,3-trifluoro-2-hydroxypropyl]-4,5-dihydro-1H-1,2,4-triazol-1-yl}methyl)-1H-1,2,4-triazol-1-yl]-N-(2,2,2-trifluoroethyl)benzamide] | 3.7 | 0.195 | 19.0
O=C(NC1CC1)c1cccc(Cl)c1-n1cnc(Cn2nc(-c3ccc(Cl)cc3)n(C[C@H](O)C(F)(F)F)c2=O)n1 [Example 369, 3-Chloro-2-[3-({3-(4-chlorophenyl)-5-oxo-4-[(2S)-3,3,3-trifluoro-2-hydroxypropyl]-4,5-dihydro-1H-1,2,4-triazol-1-yl}methyl)-1H-1,2,4-triazol-1-yl]-N-cyclopropylbenzamide] | 0.47 | 0.0028 | 167.9
O=C(NCC1CC1)c1cccc(Cl)c1-n1cnc(Cn2nc(-c3ccc(Cl)cc3)n(C[C@H](O)C(F)(F)F)c2=O)n1 [Example 370, 3-Chloro-2-[3-({3-(4-chlorophenyl)-5-oxo-4-[(2S)-3,3,3-trifluoro-2-hydroxypropyl]-4,5-dihydro-1H-1,2,4-triazol-1-yl}methyl)-1H-1,2,4-triazol-1-yl]-N-(cyclopropylmethyl)benzamide] | 0.42 | 0.033 | 12.7
NC(=O)[C@@H]1CC(F)(F)CN1C(=O)c1cccc(Cl)c1-n1cnc(Cn2nc(-c3ccc(Cl)cc3)n(C[C@H](O)C(F)(F)F)c2=O)n1 [Example 372, 1-{3-Chloro-2-[3-({3-(4-chlorophenyl)-5-oxo-4-[(2S)-3,3,3-trifluoro-2-hydroxypropyl]-4,5-dihydro-1H-1,2,4-triazol-1-yl}methyl)-1H-1,2,4-triazol-1-yl]benzoyl}-4,4-difluoro-L-prolinamide] | 3.4 | 0.0525 | 64.8
O=C(NC1CC1F)c1cccc(Cl)c1-n1cnc(Cn2nc(-c3ccc(Cl)cc3)n(C[C@H](O)C(F)(F)F)c2=O)n1 (stereo partly drawn) [Example 373, 3-Chloro-2-[3-({3-(4-chlorophenyl)-5-oxo-4-[(2S)-3,3,3-trifluoro-2-hydroxypropyl]-4,5-dihydro-1H-1,2,4-triazol-1-yl}methyl)-1H-1,2,4-triazol-1-yl]-N-[2-fluorocyclopropyl]benzamide] | 1.03 | 0.00475 | 216.8
O=C(c1cccc(Cl)c1-n1cnc(Cn2nc(-c3ccc(Cl)cc3)n(C[C@H](O)C(F)(F)F)c2=O)n1)N1CCC(F)(F)C1 [Example 374, 2-[(1-{2-Chloro-6-[(3,3-difluoropyrrolidin-1-yl)carbonyl]phenyl}-1H-1,2,4-triazol-3-yl)methyl]-5-(4-chlorophenyl)-4-[(2S)-3,3,3-trifluoro-2-hydroxypropyl]-2,4-dihydro-3H-1,2,4-triazol-3-one] | 1.45 | 0.0475 | 30.5
CC1(C)CN(C(=O)c2cccc(Cl)c2-n2cnc(Cn3nc(-c4ccc(Cl)cc4)n(C[C@H](O)C(F)(F)F)c3=O)n2)CCO1 [Example 375, 2-[(1-{2-Chloro-6-[(2,2-dimethylmorpholin-4-yl)carbonyl]phenyl}-1H-1,2,4-triazol-3-yl)methyl]-5-(4-chlorophenyl)-4-[(2S)-3,3,3-trifluoro-2-hydroxypropyl]-2,4-dihydro-3H-1,2,4-triazol-3-one] | 21 | 0.71 | 29.6
O=C(NC1CC(F)(F)C1)c1cccc(Cl)c1-n1cnc(Cn2nc(-c3ccc(Cl)cc3)n(C[C@H](O)C(F)(F)F)c2=O)n1 [Example 376, 3-Chloro-2-[3-({3-(4-chlorophenyl)-5-oxo-4-[(2S)-3,3,3-trifluoro-2-hydroxypropyl]-4,5-dihydro-1H-1,2,4-triazol-1-yl}methyl)-1H-1,2,4-triazol-1-yl]-N-(3,3-difluorocyclobutyl)benzamide] | 0.57 | 0.0735 | 7.8
O=C(c1cccc(Cl)c1-n1cnc(Cn2nc(-c3ccc(Cl)cc3)n(C[C@H](O)C(F)(F)F)c2=O)n1)N1CCCCC1 [Example 381, 5-(4-Chlorophenyl)-2-({1-[2-chloro-6-(piperidin-1-ylcarbonyl)phenyl]-1H-1,2,4-triazol-3-yl}methyl)-4-[(2S)-3,3,3-trifluoro-2-hydroxypropyl]-2,4-dihydro-3H-1,2,4-triazol-3-one] | 2.25 | 0.017 | 132.4
O=C(c1cccc(Cl)c1-n1cnc(Cn2nc(-c3ccc(Cl)cc3)n(C[C@H](O)C(F)(F)F)c2=O)n1)N1CCOCC1 [Example 382, 2-({1-[2-Chloro-6-(morpholin-4-ylcarbonyl)phenyl]-1H-1,2,4-triazol-3-yl}methyl)-5-(4-chlorophenyl)-4-[(2S)-3,3,3-trifluoro-2-hydroxypropyl]-2,4-dihydro-3H-1,2,4-triazol-3-one] | 6.25 | 0.078 | 80.1
O=C(c1cccc(Cl)c1-n1cnc(Cn2nc(-c3ccc(Cl)cc3)n(C[C@H](O)C(F)(F)F)c2=O)n1)N1CCC[C@H]1C(F)(F)F [Example 383, 5-(4-Chlorophenyl)-2-{[1-(2-chloro-6-{[(2S)-2-(trifluoromethyl)pyrrolidin-1-yl]carbonyl}phenyl)-1H-1,2,4-triazol-3-yl]methyl}-4-[(2S)-3,3,3-trifluoro-2-hydroxypropyl]-2,4-dihydro-3H-1,2,4-triazol-3-one] | 7.75 | 0.435 | 17.8
O=C(c1cccc(Cl)c1-n1cnc(Cn2nc(-c3ccc(Cl)cc3)n(C[C@H](O)C(F)(F)F)c2=O)n1)N1CCC[C@@H]1C(F)(F)F [Example 384, 5-(4-Chlorophenyl)-2-{[1-(2-chloro-6-{[(2R)-2-(trifluoromethyl)pyrrolidin-1-yl]carbonyl}phenyl)-1H-1,2,4-triazol-3-yl]methyl}-4-[(2S)-3,3,3-trifluoro-2-hydroxypropyl]-2,4-dihydro-3H-1,2,4-triazol-3-one] | 2 | 0.111 | 17.9
